Reference: US20170334899A1, “AMINO-SUBSTITUTED ISOTHIAZOLES” (Bayer Pharma Aktiengesellschaft, priority 2014, published 2017)

Target: T1, human kinase Mps-1 (Homo sapiens, UniProt P33981)
T1 construct: N-terminally GST-tagged human full length recombinant Mps-1 kinase; GST (N); purchased Invitrogen, Karslruhe, Germany PV4071
T1 sequence (P33981 1-857): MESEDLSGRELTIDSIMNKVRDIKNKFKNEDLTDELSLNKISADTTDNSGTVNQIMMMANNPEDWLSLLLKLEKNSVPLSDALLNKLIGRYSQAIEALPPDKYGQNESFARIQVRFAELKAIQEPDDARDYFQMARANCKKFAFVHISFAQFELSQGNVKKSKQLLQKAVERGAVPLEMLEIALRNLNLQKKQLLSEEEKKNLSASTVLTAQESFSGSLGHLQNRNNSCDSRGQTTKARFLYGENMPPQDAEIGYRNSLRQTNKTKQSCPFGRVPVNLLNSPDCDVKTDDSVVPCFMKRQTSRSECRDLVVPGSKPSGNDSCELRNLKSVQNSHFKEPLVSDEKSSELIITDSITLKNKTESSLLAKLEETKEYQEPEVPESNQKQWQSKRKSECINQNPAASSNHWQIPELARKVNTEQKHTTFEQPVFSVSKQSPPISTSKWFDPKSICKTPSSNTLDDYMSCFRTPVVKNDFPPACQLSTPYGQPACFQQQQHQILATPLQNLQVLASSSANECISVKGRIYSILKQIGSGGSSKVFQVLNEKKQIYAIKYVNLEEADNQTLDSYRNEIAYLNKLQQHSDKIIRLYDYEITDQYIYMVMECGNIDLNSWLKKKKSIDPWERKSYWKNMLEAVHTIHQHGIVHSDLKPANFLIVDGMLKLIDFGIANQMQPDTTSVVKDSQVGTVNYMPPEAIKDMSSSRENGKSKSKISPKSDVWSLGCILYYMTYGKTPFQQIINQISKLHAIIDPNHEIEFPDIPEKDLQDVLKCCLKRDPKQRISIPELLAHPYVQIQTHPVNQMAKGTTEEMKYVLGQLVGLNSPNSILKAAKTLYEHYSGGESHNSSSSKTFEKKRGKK
Assay: Mps-1 kinase assay (TR-FRET)
Format: biochemical
Details: Mps-1 TR-FRET kinase assay; avg; read-out: Mps1 avg (IC50 [mol/l])
Method: The human kinase Mps-1 phosphorylates a biotinylated substrate peptide. Detection of the phosphorylated product is achieved by time-resolved fluorescence resonance energy transfer (TR-FRET) from Europium-labelled anti-phospho-Serine/Threonine antibody as donor to streptavidin labelled with cross-linked allophycocyanin (SA-XLent) as acceptor. Compounds are tested for their inhibition of the kinase activity.
N-terminally GST-tagged human full length recombinant Mps-1 kinase (purchased from Invitrogen, Karslruhe, Germany, cat. no PV4071) was used. As substrate for the kinase reaction a biotinylated peptide of the amino-acid sequence biotin-Ahx-PWDPDDADITEILG (C-terminus in amide form, purchased from Biosyntan GmbH, Berlin) was used.
For the assay 50 nl of a 100-fold concentrated solution of the test compound in DMSO was pipetted into a black low volume 384we11 microtiter plate (Greiner Bio-One, Frickenhausen, Germany), 2 μl of a solution of Mps-1 in assay buffer [0.1 mM sodium-ortho-vanadate, 10 mM MgCl2,2 mM DTT, 25 mM Hepes pH 7.7, 0.05% BSA (w/v), 0.001% Pluronic F-127] were added and the mixture was incubated for 15 min at 22° C. to allow pre-binding of the test compounds to Mps-1 before the start of the kinase reaction. Then the kinase reaction was started by the addition of 3 μl of a solution of 16.7 μM adenosine-tri-phosphate (ATP, 16.7 μM=>final conc. in the 5 μl assay volume is 10 μM) and peptide substrate (1.67 μM=>final conc. in the 5 μl assay volume is 1 μM) in assay buffer and the resulting mixture was incubated for a reaction time of 60 min at 22° C. The concentration of Mps-1 in the assay was adjusted to the activity of the enzyme lot and was chosen appropriate to have the assay in the linear range, typical enzyme concentrations were in the range of about 0.5 nM (final conc. in the 5 μl assay volume). The reaction was stopped by the addition of 5 μl of a solution of TR-FRET detection reagents (100 mM Hepes pH 7.4, 0.1% BSA, 40 mM EDTA, 140 nM Streptavidin-XLent [#61GSTXLB, Fa. Cis Biointernational, Marcoule, France], 1.5 nM anti-phospho(Ser/Thr)-Europium-antibody [#AD0180, PerkinElmer LAS, Rodgau-Jugesheinn, Germany]. Instead of the 1.5 nM anti-phospho(Ser/Thr)-Europium-antibody a mixture of 2 nM unlabeled anti-phospho ser/thr-pro antibody MPM-2 [Millipore cat. #05-368] and 1 nM LANCE EU-W1024 labeled anti-mouse IgG antibody [Perkin-Elmer, product no. AD0077] can be used).
The resulting mixture was incubated 1 h at 22° C. to allow the binding of the phosphorylated peptide to the anti-phospho(Ser/Thr)-Europium-antibody. Subsequently the amount of phosphorylated substrate was evaluated by measurement of the resonance energy transfer from the Europium-labelled anti-phospho(Ser/Thr) antibody to the Streptavidin-XLent. Therefore, the fluorescence emissions at 620 nm and 665 nm after excitation at 350 nm was measured in a Viewlux TR-FRET reader (PerkinElmer LAS, Rodgau-Jugesheinn, Germany). The “blank-corrected normalized ratio” (a Viewlux specific readout, similar to the traditional ratio of the emissions at 665 nm and at 622 nm, in which blank and Eu-donor crosstalk are subtracted from the 665 nm signal before the ratio is calculated) was taken as the measure for the amount of phosphorylated substrate. The data were normalised (enzyme reaction without inhibitor=0% inhibition, all other assay components but no enzyme=100% inhibition).

| SMILES | IC50 [µM] |
| --- | --- |
| Cc1nsc(Nc2cnc(C(F)(F)F)cn2)c1C(=O)Nc1ccc(OC[C@@H]2CCN(CC(F)(F)F)C2)nc1 [Example 128, 3-Methyl-N-(6-{[(3R)-1-(2,2,2-trifluoroethyl)pyrrolidin-3-yl]methoxy}pyridin-3-yl)-5-{[5-(trifluoromethyl)pyrazin-2-yl]amino}-1,2-thiazole-4-carboxamide] | > 20 |
| CCCN1CC[C@H](Oc2ccc(NC(=O)c3c(C)nsc3Nc3cnc(C(F)(F)F)cn3)cn2)[C@H](F)C1 [Example 147, N-(6-{[(3R,4S)-3-fluoro-1-propylpiperidin-4-yl]oxy}pyridin-3-yl)-3-methyl-5-{[5-(trifluoromethyl)pyrazin-2-yl]amino}-1,2-thiazole-4-carboxamide] | > 20 |
| Cc1nsc(Nc2cnc(C(F)(F)F)cn2)c1C(=O)Nc1ccc(O[C@@H]2CCN(CC(F)(F)F)C[C@@H]2F)nc1 [Example 138, N-(6-{[(3S,4R)-3-fluoro-1-(2,2,2-trifluoroethyl)piperidin-4-yl]oxy}pyridin-3-yl)-3-methyl-5-{[5-(trifluoromethyl)pyrazin-2-yl]amino}-1,2-thiazole-4-carboxamide] | > 20 |
| COc1ccc(NC(=O)c2c(C)nsc2Nc2ccc(C#N)cn2)c(N2CCOCC2)n1 [Example 173, 5-[(5-cyanopyridin-2-yl)amino]-N-[6-methoxy-2-(morpholin-4-yl)pyridin-3-yl]-3-methyl-1,2-thiazole-4-carboxamide] | > 20 |
| Cc1nsc(Nc2cnc(C(F)(F)F)cn2)c1C(=O)Nc1ccc(OC2CCN(CC(F)F)CC2)nc1 [Example 8, N-(6-{[1-(2,2-Difluoroethyl)piperidin-4-yl]oxy}pyridin-3-yl)-3-methyl-5-{[5-(trifluoromethyl)pyrazin-2-yl]amino}-1,2-thiazole-4-carboxamide] | ≥ 20 |
| Cc1nsc(Nc2cnc3cc(F)ccc3n2)c1C(=O)Nc1ccc(S(N)(=O)=O)cc1 [Example 149, 5-[(6-fluoroquinoxalin-2-yl)amino]-3-methyl-N-(4-sulfamoylphenyl)-1,2-thiazole-4-carboxamide] | > 20 |
| Cc1nsc(Nc2cnc3ccccc3n2)c1C(=O)Nc1cccc(-c2nnc(C(C)(C)C)o2)c1 [Example 107, N-[3-(5-tert-Butyl-1,3,4-oxadiazol-2-yl)phenyl]-3-methyl-5-(quinoxalin-2-ylamino)-1,2-thiazole-4-carboxamide] | ≥ 20 |
| Cc1nsc(Nc2cnc(C(F)(F)F)cn2)c1C(=O)Nc1ccc(OC2CCN(C(C)C)CC2)nc1 [Example 160, N-{6-[(1-isopropylpiperidin-4-yl)oxy]pyridin-3-yl}-3-methyl-5-{[5-(trifluoromethyl)pyrazin-2-yl]amino}-1,2-thiazole-4-carboxamide] | > 20 |
| Cc1nsc(Nc2cncc(C(F)(F)F)n2)c1C(=O)Nc1ccc(OC2CCN(C(=O)OC(C)(C)C)CC2)nc1 [Example 12, tert-Butyl 4-[(5-{[(3-methyl-5-{[6-(trifluoromethyl)pyrazin-2-yl]amino}-1,2-thiazol-4-yl)carbonyl]amino}pyridin-2-yl)oxy]piperidine-1-carboxylate] | ≥ 20 |

The remaining lines, values ahead:

| IC50 [µM] | SMILES |
| --- | --- |
| ≥ 20 | Cc1nsc(Nc2cnc(C(F)(F)F)cn2)c1C(=O)Nc1ccc(C(=O)OC(C)(C)C)cc1 [Example 96, tert-Butyl 4-{[(3-methyl-5-{[5-(trifluoromethyl)pyrazin-2-yl]amino}-1,2-thiazol-4-yl)carbonyl]amino}benzoate] |
| > 20 | Cc1nsc(Nc2cnc(C(F)(F)F)cn2)c1C(=O)Nc1ccc(C(=O)NC2CCN(CC(F)(F)F)CC2)cc1 [Example 165, 3-methyl-N-(4-{[1-(2,2,2-trifluoroethyl)piperidin-4-yl]carbamoyl}phenyl)-5-{[5-(trifluoromethyl)pyrazin-2-yl]amino}-1,2-thiazole-4-carboxamide] |
| ≥ 20 | Cc1nsc(Nc2cnc(C(F)(F)F)cn2)c1C(=O)Nc1ccc(F)c(OCC2CCCN(CC(F)F)C2)c1 (stereo not shown) [Example 335, N-(3-{[1-(2,2-difluoroethyl)piperidin-3-yl]methoxy}-4-fluorophenyl)-3-methyl-5-{[5-(trifluoromethyl)pyrazin-2-yl]amino}-1,2-thiazole-4-carboxamide] |
| ≥ 20 | Cc1nsc(Nc2cnc(C(F)(F)F)cn2)c1C(=O)Nc1ccc(OCC2CCN(CCC(F)(F)F)C2)nc1 (stereo not shown) [Example 124, 3-methyl-5-{[5-(trifluoromethyl)pyrazin-2-yl]amino}-N-(6-{[1-(3,3,3-trifluoropropyl)pyrrolidin-3-yl]methoxy}pyridin-3-yl)-1,2-thiazole-4-carboxamide] |
| > 20 | Cc1nsc(Nc2cncc(C(F)(F)F)n2)c1C(=O)Nc1ccc(C(=O)NC2CCN(CC(F)(F)F)CC2)cc1 [Example 167, 3-methyl-N-(4-{[1-(2,2,2-trifluoroethyl)piperidin-4-yl]carbamoyl}phenyl)-5-{[6-(trifluoromethyl)pyrazin-2-yl]amino}-1,2-thiazole-4-carboxamide] |
| ≥ 20 | Cc1nsc(Nc2cc(C#N)ccn2)c1C(=O)Nc1ccc(Oc2cccnc2)nc1 [Example 119, 5-[(4-Cyanopyridin-2-yl)amino]-3-methyl-N-[6-(pyridin-3-yloxy)pyridin-3-yl]-1,2-thiazole-4-carboxamide] |
| > 20 | Cc1nsc(Nc2cnc(C(F)(F)F)cn2)c1C(=O)Nc1ccc(F)c(C(N)=O)c1 [Example 151, N-(3-carbamoyl-4-fluorophenyl)-3-methyl-5-{[5-(trifluoromethyl)pyrazin-2-yl]amino}-1,2-thiazole-4-carboxamide] |
| > 20 | Cc1nsc(Nc2cnc(C(F)(F)F)cn2)c1C(=O)Nc1ccc(OC[C@@H]2CCN(CCC(F)(F)F)C2)nc1 [Example 129, 3-Methyl-5-{[5-(trifluoromethyl)pyrazin-2-yl]amino}-N-(6-{[(3R)-1-(3,3,3-trifluoropropyl)pyrrolidin-3-yl]methoxy}pyridin-3-yl)-1,2-thiazole-4-carboxamide] |
| ≥ 20 | Cc1nsc(Nc2cnc(C(F)(F)F)cn2)c1C(=O)Nc1ccc(C(=O)O)cc1 [Example 97, 4-{[(3-Methyl-5-{[5-(trifluoromethyl)pyrazin-2-yl]amino}-1,2-thiazol-4-yl)carbony]-amino}benzoic acid] |
| ≥ 20 | CNS(=O)(=O)c1ccc(NC(=O)c2c(C)nsc2Nc2cnc3ccccc3n2)cc1 [Example 111, 3-Methyl-N-[4-(methylsulfannoyl)phenyl]-5-(quinoxalin-2-ylamino)-1,2-thiazole-4-carboxamide] |
